Measured values: patent publication US6486169B1, “Botanical drug for treatment and prevention of alzhimer's disease” (priority 2002, dated 2002)
Marks after values point to notes of the source that are not given here.

Experiments:
[1] = system: male mice of PBA/2 strains; test: Effect on memory (1): complex learning measures and memory in mice; format: in vivo; details: injected, normal = 100
Protocol: Four months of male mice of PBA/2 strains used in experiments. […] Mice of HUE group were injected 0.1, 0.5 and 1.0 mg/kg of HUE. The control group was injected saline. Complex learning measures and memory were determined in experiments. (Reference see “Mammalian Models for Research on Aging”, pp 23-180, edited by Committee on Animal Models for Research on Aging, Institute of Laboratory Animal resources, division of Biological Sciences and Assembly of Life Science, published by National Academy Press, Washington, D.C., 1981). Normal animals injected by saline. Control animals injected by anisodine. Anisodine caused mistake of memory.

[2] = system: superoxide anion of pig brain; test: Postischemic SOD-inhibitable NBT reduction (superoxide anion generation) in pig brain; format: in vivo; details: piglets, ischemia-reperfusion, pretreated with HUE 0.5 mg/kg; ischemia-reperfusion control 12.9 ± 2.0, normal 2.8 ± 0.3
Protocol: Reperfusion injury after prolonged ischemia appeared to oxygen species of cerebral. The superoxide dismutase (SOD)-inhibitable nitroblue tetrazolium (NBT) reduction was determined as an index of superoxide anion generation in pig brain. In present study, effect of HUE on postischemic SOD-inhibitable NBT reduction was determined.
Piglets (1 kg) of either sex were anesthetized Anesthesia was maintained with α-chloralose. A catheter was inserted into a femoral artery to record blood pressure and to sample for blood gases and pH. Another catheter was placed in a femoral vein for injection of drugs. The trachea was cannulated, and the piglets were ventilated with room air. Body temperature was maintained at 37-38° C. with a water-circulating heating pad. Total cerebral ischemia was performed.
SOD-inhibitable NBT reduction was determined as an index of superoxide anion production. In control group, the piglets treated with vehicle (CSF). In treatment group, the piglets pretreated with HUE (0.5 mg/kg). SOD-inhibitable NBT reduction was determined for 20 minutes. For analysis, the slices were minced and homogenized in 1 N NaOH and 0.1% sodium dodecyl sulfate, the mixture centrifuged at 20,000 g for 20 min, the resulting supernatant discarded, and the pellet resuspended in 3 ml pyridine. […] The concentration of formazan in the resulting solution was determined spectrophotometrically at 515 nm.

[3] = system: Ca++ concentration of brain cells; test: Ca++ concentration of brain cell; format: in vivo; details: control 112
Protocol: Method of animal is as same as example 7.
Ca^++ concentration of brain cell was determined.

[4] = system: male mice of PBA/2 strains; test: Effect on memory (2): anisodine-caused mistake of memory; format: in vivo; details: anisodine model, dose 50 mg/kg each (50 + 50 for combination), control 38.5 ± 4.0, normal 5.0 ± 1.2
Protocol: Four months of male mice of PBA/2 strains used in experiments. […] The control group was injected saline. Complex learning measures and memory were determined in experiments. (Reference see “Mammalian Models for Research on Aging”, pp 23-180, edited by Committee on Animal Models for Research on Aging, Institute of Laboratory Animal resources, division of Biological Sciences and Assembly of Life Science, published by National Academy Press, Washington, D.C., 1981). Normal animals injected by saline. Control animals injected by anisodine. Anisodine caused mistake of memory.

[5] = system: RNA synthesis of brain cells; test: RNA synthesis of brain cells, 3H-U incorporation in cell free brain homogenate; format: in vivo, mice of DBA/2 strains; details: mice, injected 1.0 mg/kg, control (saline) 1280
Protocol: It is known that decline RNA content in cortical and cerebral cortex of AD. RNA of brain cell was determined.
Four months of male mice of DBA/2 strains used in experiment. Mice of treatment group injected HUE or CLE (dose was 1.0 mg/kg). Mice of control group were injected by same value of saline. Mice killed and brain was rapidly removed. Cell free brain homogenate preparations used in experiment. 0.5 μC ^3H-U (20 μCi/mM) was mixed with 1 ml homogenate suspension was incubated at 37° C. Homogenate precipitated with 10% trichloroacetic acid (TCA) and filtered onto glass fiber filters. The filters were washed with phosphate-buffered saline and placed in scintillation vials 10 ml of scintillation solution (which containing […]) were added to digested solution and determined at LSC and radioactive emissions were counted.

brain protein synthesis = test: Brain protein synthesis, (14C) leucine incorporation in cell free brain homogenate; format: in vivo, mice of DBA/2 strains; details: mice, injected 1.0 mg/kg each, control 901
Protocol: It is known that an age-dependent decline in animal brain protein synthesis. The decreased incorporation of amino acids into proteins can be observed in vitro including brain slices, brain cell suspensions, cell free brain homogenate preparations from older animals. Four months of male mice of DBA/2 strains used in experiment. Mice of HUE group injected HUE and dose was 0.1, 0.5 and 1.0 mg/kg. Mice of control group were injected by same value of saline. Mice killed and brain was rapidly removed. Cell free brain homogenate preparations used in experiment. (^14C) leucine mixed with homogenate suspension was incubated at 37° C. Homogenate precipitated with 10% trichloroacetic acid (TCA) and filtered onto glass fiber filters. The filters were washed with phosphate-buffered saline and placed in scintillation vials 10 ml of scintillation solution (which containing […]) were added to digested solution and determined at LSC and radioactive emissions were counted.

[6] = system: N2a neuroblastoma cells exposed to Aβ; test: Viability of N2a neuroblastoma cells exposed to Alzheimer amyloid β protein; format: cell-based; details: 50 μm Aβ for 24 hours, HUE 50 μg/ml, βA alone 35.4, normal 97.5
Excerpt: In AD, the protein forms aggregates of insoluble β-pleated sheets of fibrillar βA protein(amyloid). The conformational change from soluble to fibrillar forms seems to be a spontaneous event. The fibrillization is increased with higher concentrations of βA and with the longer forms of βA, so any production of larger amounts of βA than normal or production of the larger, less soluble forms of βA will tend to increase plaque formation. Once the βA plaque has started to form, other molecules can interact with the nascent plaque to produce eventually the mature plaque with its associated areas of cell death. In present study, effect of HUE on neuroblastoma cells exposed to the Alzheimer amyloid β protein and Aβ was examined.
N2a neuroblastoma cells were cultured and then exposed to 50 μm Aβ for 24 hours.
Concentration of HUE was 50 μg/ml. Cells viability determined by fluorescent staining, iodide and the trypan blue exclusion methods were used in experiments.

DA in brain = test: Concentration of dopamine (DA) in brain; format: in vivo; details: 10 mg/kg each; control 880 ± 97
Excerpt: The effect of CLE and HUE on concentration of dopanmine (DA) was examined. The method of animal is as same as mentioned previously.

LTP in CAI area of brain = test: Long-term potentiation (LTP) by electro-physiological method; format: in vivo; details: control 8
Excerpt: The long-term potentiation (LTP) is model of information stored in brain. LTP is as an index determined by electro-physiological method and express as mv in CAI area of brain.

Compound | Increasing memory (%) ([1]; 0.1 mg/kg) | Increasing memory (%) ([1]; 0.5 mg/kg) | Increasing memory (%) ([1]; 1.0 mg/kg) | Pmol NBT/mm^2, 20 min (SOD-inhibitable NBT reduction) [2] | Ca^++ [3] | Number of mistake [4] | CPM (3H-U into RNA) [5] | CPM ((14C) leucine into protein) (brain protein synthesis) | Cells viability (%) [6] | DA (ng/g brain) (DA in brain) | LTP (mv in CAI) (LTP in CAI area of brain)
C/C=C1\[C@H]2C=C(C)C[C@]1(N)c1ccc(=O)[nH]c1C2 [HUE, Huperzine] | 150% | 210% | 350% | 4.2 ± 0.5 Pmol NBT/mm^2, 20 min | 160 µmol/L | *10.8 ± 1.5 | 1860 CPM | 2640 CPM | 80.2* % | 1280 ± 120 ng/g brain | 10 mv
Clausenamide [CLE] | – | – | – | – | 220 µmol/L | *11.2 ± 2.0 | 1540 CPM | 1580 CPM | 70.5* % | 1560 ± 102 ng/g brain | 13 mv
